Measurements published in patent publication US9149051B2, “Dairy composition with high-potency sweetener” (THE COCA-COLA COMPANY, priority 2005, dated 2015).

Assay: Rate of dissolution in H2O at 25° C. of rebaudioside A polymorph and amorphous forms
Format: physicochemical
Details: rating in words
Excerpt: The purification of rebaudioside A by crystallization as described above results in the formation of at least three different polymorphs: Form 1: a rebaudioside A hydrate; Form 2: an anhydrous rebaudioside A; and Form 3: a rebaudioside A solvate. In addition to the at least three polymorph forms of rebaudioside A, the purification of rebaudioside A may result in the formation of an amorphous form of rebaudioside A, Form 4. The aqueous organic solution and temperature of the purification process influence the resulting polymorph and amorphous forms in the substantially pure rebaudioside A composition. FIGS. 1-5 are exemplary powder x-ray diffraction (XRPD) scans of the polymorph and amorphous forms of rebaudioside A: Form 1 (hydrate), Form 2 (anhydrate), Form 3A (methanol solvate), Form 3B (ethanol solvate), and Form 4 (amorphous), respectively.

Row | Rate of dissolution in H2O at 25° C. | Substance
1 | Intermediate | rebaudioside A [Form 2]
2 | High | rebaudioside A [Form 4]
3 | Very low | rebaudioside A [Form 1]
4 | High | rebaudioside A [Form 3]
